Test system: KRAS patient-derived spheroids with HUVEC/MSC, viability
Experiment: Anticancer human tumor 941728-121-R-J1-PDC patient-derived lung adenocarcinoma cell line growth inhibition [KRAS2]
Conditions: for IC50: curve of first compound; for viability, T/C: stronger effect = lower value; active means viability on the fitted dose curve at most 10% of control; inactive means the rest
Procedure, shortened: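 Combination screen of spheroid viability in tumor-cell co-cultures with endothelial (HUVEC) and mesenchymal stem cell stroma. Each agent was tested in half-log dilutions, topping at clinical Cmax or at 10 microM without a known Cmax.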

[1] = second compound 0.0316 µM, first compound 0.0316 µM
[2] = second compound 0.0316 µM, first compound 0.1 µM
[3] = second compound 0.0316 µM, first compound 0.316 µM
[4] = second compound 0.0316 µM, first compound 1 µM
[5] = second compound 0.0316 µM, first compound 3.16 µM
[6] = second compound 0.0316 µM, first compound 10 µM
[7] = second compound 0.1 µM, first compound 0.0316 µM
[8] = second compound 0.1 µM, first compound 0.1 µM
[9] = second compound 0.1 µM, first compound 0.316 µM
[10] = second compound 0.1 µM, first compound 1 µM
[11] = second compound 0.1 µM, first compound 3.16 µM
[12] = second compound 0.1 µM, first compound 10 µM
[13] = second compound 0.316 µM, first compound 0.0316 µM
[14] = second compound 0.316 µM, first compound 0.1 µM
[15] = second compound 0.316 µM, first compound 0.316 µM
[16] = second compound 0.316 µM, first compound 1 µM
[17] = second compound 0.316 µM, first compound 3.16 µM
[18] = second compound 0.316 µM, first compound 10 µM
[19] = second compound 1 µM, first compound 0.0316 µM
[20] = second compound 1 µM, first compound 0.1 µM
[21] = second compound 1 µM, first compound 0.316 µM
[22] = second compound 1 µM, first compound 1 µM
[23] = second compound 1 µM, first compound 3.16 µM
[24] = second compound 1 µM, first compound 10 µM
[25] = second compound 3.16 µM, first compound 0.0316 µM
[26] = second compound 3.16 µM, first compound 0.1 µM
[27] = second compound 3.16 µM, first compound 0.316 µM
[28] = second compound 3.16 µM, first compound 1 µM
[29] = second compound 3.16 µM, first compound 3.16 µM
[30] = second compound 3.16 µM, first compound 10 µM
[31] = second compound 10 µM, first compound 0.0316 µM
[32] = second compound 10 µM, first compound 0.1 µM
[33] = second compound 10 µM, first compound 0.316 µM
[34] = second compound 10 µM, first compound 1 µM
[35] = second compound 10 µM, first compound 3.16 µM
[36] = second compound 10 µM, first compound 10 µM
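Further: spheroids exposed to agents for seven days before readout.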

O=C(c1cc(Cc2n[nH]c(=O)c3ccccc23)ccc1F)N1CCN(C(=O)C2CC2)CC1 + C=CC(=O)N1CCN(c2nc(OCC3CCCN3C)nc3c2CCN(c2cccc4cccc(C)c24)C3)CC1CC#N
inactive: viability, T/C [1] 36.5% | viability, T/C [2] 36.5% | viability, T/C [3] 59.6% | viability, T/C [4] 29.1% | viability, T/C [5] 26.9% | viability, T/C [6] 36.2% | viability, T/C [7] 32.3% | viability, T/C [8] 33.3% | viability, T/C [9] 30.5% | viability, T/C [10] 32.5% | viability, T/C [11] 30.6% | viability, T/C [12] 35.4% | viability, T/C [13] 36.1% | viability, T/C [14] 33.7% | viability, T/C [15] 33.3% | viability, T/C [16] 33.7% | viability, T/C [17] 33.9% | viability, T/C [18] 34.2% | viability, T/C [19] 32.6% | viability, T/C [20] 36.2% | viability, T/C [21] 35.2% | viability, T/C [22] 32.8% | viability, T/C [23] 32% | viability, T/C [24] 35.7%
< 31.6 nM: IC50 (second compound 0.0316 µM) | IC50 (second compound 0.1 µM) | IC50 (second compound 0.316 µM) | IC50 (second compound 1 µM) | IC50 (second compound 3.16 µM)
active: viability, T/C [25] 0.38% | viability, T/C [26] 4.45% | viability, T/C [27] 1.13% | viability, T/C [28] 0.34% | viability, T/C [29] 0.38% | viability, T/C [30] 0.53%

CC1OCC2(CCN(c3cnc(Sc4ccnc(N)c4Cl)c(N)n3)CC2)C1N (stereo not drawn) + C=CC(=O)N1CCN(c2nc(OCC3CCCN3C)nc3c2CCN(c2cccc4cccc(C)c24)C3)CC1CC#N
< 31.6 nM: IC50 (second compound 0.0316 µM) | IC50 (second compound 0.1 µM) | IC50 (second compound 0.316 µM) | IC50 (second compound 1 µM) | IC50 (second compound 3.16 µM)
inactive: viability, T/C [1] 32.3% | viability, T/C [2] 28.9% | viability, T/C [3] 25.4% | viability, T/C [4] 26.4% | viability, T/C [5] 23.6% | viability, T/C [6] 18.4% | viability, T/C [7] 31.4% | viability, T/C [8] 28.9% | viability, T/C [9] 25.6% | viability, T/C [10] 26.3% | viability, T/C [11] 25.4% | viability, T/C [12] 20.6% | viability, T/C [13] 32.8% | viability, T/C [14] 30.8% | viability, T/C [15] 28% | viability, T/C [16] 26.9% | viability, T/C [17] 25.1% | viability, T/C [18] 23.7% | viability, T/C [19] 32.8% | viability, T/C [20] 34.8% | viability, T/C [21] 32.7% | viability, T/C [22] 28.2% | viability, T/C [23] 29.1% | viability, T/C [24] 28.4%
active: viability, T/C [25] 4.61% | viability, T/C [26] 10.1% | viability, T/C [27] 4.45% | viability, T/C [28] 4.43% | viability, T/C [29] 4.99% | viability, T/C [30] 9.3%

O=C(c1cc(Cc2n[nH]c(=O)c3ccccc23)ccc1F)N1CCN(C(=O)C2CC2)CC1 + C=CC(=O)N1CCN(c2nc(=O)n(-c3c(C)ccnc3C(C)C)c3nc(-c4c(O)cccc4F)c(F)cc23)C(C)C1
inactive: viability, T/C [7] 29.5% | viability, T/C [8] 24.6% | viability, T/C [9] 21.9% | viability, T/C [10] 19.5% | viability, T/C [11] 21.1% | viability, T/C [12] 23.8% | viability, T/C [13] 28.2% | viability, T/C [14] 33.6% | viability, T/C [15] 24.4% | viability, T/C [16] 19.8% | viability, T/C [17] 24.2% | viability, T/C [18] 25.2% | viability, T/C [19] 34.2% | viability, T/C [20] 34.4% | viability, T/C [21] 33.8% | viability, T/C [22] 29.3% | viability, T/C [23] 24.7% | viability, T/C [24] 26.7% | viability, T/C [25] 35.2% | viability, T/C [26] 34.2% | viability, T/C [27] 36% | viability, T/C [28] 30.9% | viability, T/C [29] 34.6% | viability, T/C [30] 35.3% | viability, T/C [31] 39.3% | viability, T/C [32] 43.3% | viability, T/C [33] 42.1% | viability, T/C [34] 43.2% | viability, T/C [35] 45% | viability, T/C [36] 48.2%
< 31.6 nM: IC50 (second compound 0.1 µM) | IC50 (second compound 0.316 µM) | IC50 (second compound 1 µM) | IC50 (second compound 3.16 µM) | IC50 (second compound 10 µM)

CCNC(=O)CC1N=C(c2ccc(Cl)cc2)c2cc(OC)ccc2-n2c(C)nnc21 (stereo not drawn)
inactive: viability, T/C (compound 0.0316 µM) 94% [middle of 5 runs] | viability, T/C (compound 0.316 µM) 61.8% [middle of 5 runs]

CC(C)n1nc(-c2ccc3oc(N)nc3c2)c2c(N)ncnc21 + C=CC(=O)N1CCN(c2nc(OCC3CCCN3C)nc3c2CCN(c2cccc4cccc(C)c24)C3)CC1CC#N
active: viability, T/C [2] 11% | viability, T/C [14] 9.77% | viability, T/C [20] 10.3% | viability, T/C (second compound 3.16 µM, first compound 0.000316 µM) 2.26% | viability, T/C (second compound 3.16 µM, first compound 0.001 µM) 0.92% | viability, T/C (second compound 3.16 µM, first compound 0.00316 µM) 0.32% | viability, T/C (second compound 3.16 µM, first compound 0.01 µM) 0.8% | viability, T/C [25] 0.12% | viability, T/C [26] 0.23%
inactive: viability, T/C (second compound 0.0316 µM, first compound 0.000316 µM) 35.4% | viability, T/C (second compound 0.0316 µM, first compound 0.001 µM) 32.9% | viability, T/C (second compound 0.0316 µM, first compound 0.00316 µM) 24.6% | viability, T/C (second compound 0.0316 µM, first compound 0.01 µM) 17.3% | viability, T/C [1] 11.5% | viability, T/C (second compound 0.1 µM, first compound 0.000316 µM) 35.3% | viability, T/C (second compound 0.1 µM, first compound 0.001 µM) 28.8% | viability, T/C (second compound 0.1 µM, first compound 0.00316 µM) 28% | viability, T/C (second compound 0.1 µM, first compound 0.01 µM) 15.9% | viability, T/C [7] 11.1% | viability, T/C [8] 12.5% | viability, T/C (second compound 0.316 µM, first compound 0.000316 µM) 38.2% | viability, T/C (second compound 0.316 µM, first compound 0.001 µM) 33.9% | viability, T/C (second compound 0.316 µM, first compound 0.00316 µM) 26.6% | viability, T/C (second compound 0.316 µM, first compound 0.01 µM) 16.8% | viability, T/C [13] 13% | viability, T/C (second compound 1 µM, first compound 0.000316 µM) 33.1% | viability, T/C (second compound 1 µM, first compound 0.001 µM) 29% | viability, T/C (second compound 1 µM, first compound 0.00316 µM) 20% | viability, T/C (second compound 1 µM, first compound 0.01 µM) 11.9% | viability, T/C [19] 9.99%
< 0.316 nM: IC50 (second compound 0.0316 µM) | IC50 (second compound 0.1 µM) | IC50 (second compound 0.316 µM) | IC50 (second compound 1 µM) | IC50 (second compound 3.16 µM)

CC(=O)Nc1cccc(-n2c(=O)n(C3CC3)c(=O)c3c(Nc4ccc(I)cc4F)n(C)c(=O)c(C)c32)c1
inactive: viability, T/C (compound 0.0001 µM) 84.8% [middle of 5 runs] | viability, T/C (compound 0.000316 µM) 63.7% [middle of 5 runs] | viability, T/C (compound 0.001 µM) 53.3% [middle of 5 runs] | viability, T/C (compound 0.00316 µM) 49.9% [middle of 4 runs] | viability, T/C (compound 0.01 µM) 47.2% [middle of 5 runs] | viability, T/C (compound 0.0316 µM) 42.3% [middle of 5 runs]

CC(C)NCC(C(=O)N1CCN(c2ncnc3c2C(C)CC3O)CC1)c1ccc(Cl)cc1 (stereo not drawn) + CC1OCC2(CCN(c3cnc(Sc4ccnc(N)c4Cl)c(N)n3)CC2)C1N
active: viability, T/C [18] 8.83% | viability, T/C [24] 4.1% | viability, T/C [29] 10.7% | viability, T/C [30] 3.56% | viability, T/C [35] 4.83% | viability, T/C [36] 1.91%
< 31.6 nM: IC50 (second compound 0.1 µM) | IC50 (second compound 0.316 µM) | IC50 (second compound 1 µM) | IC50 (second compound 3.16 µM) | IC50 (second compound 10 µM)
inactive: viability, T/C [7] 38.3% | viability, T/C [8] 40.1% | viability, T/C [9] 29.9% | viability, T/C [10] 24.9% | viability, T/C [11] 19.1% | viability, T/C [12] 10.4% | viability, T/C [13] 34% | viability, T/C [14] 31.9% | viability, T/C [15] 25.3% | viability, T/C [16] 20.9% | viability, T/C [17] 15.1% | viability, T/C [19] 26.2% | viability, T/C [20] 26.8% | viability, T/C [21] 23.7% | viability, T/C [22] 16.7% | viability, T/C [23] 12.8% | viability, T/C [25] 25.8% | viability, T/C [26] 22.1% | viability, T/C [27] 20.8% | viability, T/C [28] 14.3% | viability, T/C [31] 19.1% | viability, T/C [32] 17.9% | viability, T/C [33] 17.2% | viability, T/C [34] 11.2%
